Where two headings read alike, the source gives them in different places.
Legend:
[1] = Qualitative solubility of FT1518 in aqueous media containing counterions; type: physicochemical
Source text: Solubility of FT-1518 was checked in various counter ion solutions before performing salt screening to obtain an estimate of feasibility of salt formation in the respective counter ions.

[2] = 1 week stability of shortlisted salts at 40° C./75% RH, open; type: physicochemical; conditions: for % purity / XRD: after 7 days at 40° C./75% RH, open; for % purity: HPLC; for XRD: physical form vs initial; for pH of 2% w/v aqueous dispersion/solution / state of 2% w/v aqueous dispersion/solution: 2% w/v in water
[3] = Intravenous and per oral pharmacokinetics in male Sprague Dawley rats; type: in vivo, Sprague Dawley (SD) rats; conditions: for Bioavailability (% F): PO dose (10 mg/kg) vs IV 5 mg/kg
Protocol: The husbandry conditions were maintained as described in animal facility SOPs during the study period. Animals procured were quarantined for 7 days followed by acclimatization for 5 days. The study was carried out for two days. Male Balb/c mice of age 10-12 weeks (18-25 g) and male Sprague Dawley rats 8-10 weeks (220-280 g) were used. The food was with held for a period of 4-12 hr prior to dosing and returned to all animals 4h post dosing and water supplied ad libitum. The doses of FT1518 were as follows: Mice: 10 mg/kg intravenous (i.v) and 50 mg/kg oral (p.o); rat—5 mg/kg intravenous (i.v) and 10 mg/kg oral (p.o). The formulation used in i.v and p.o studies were 10% dimethylsulfoxide (DMSO)+30% polyethyleneglycol 400 (PEG400)+60% water and 0.5% methylcellulose (MC)+0.1% tween 80. Blood was collected at the predetermined time points in mice (cardiac puncture) and Jugular vein (rats) over a period of 24h in eppendorf tubes containing K2EDTA as anticoagulant. The plasma was isolated from the blood and stored at −80° C. until bioanalysis.
Intravenous and Per Oral Pharmacokinetic Profile of FT1518 (Base); FT1518-Esylate Salt and FT1518-Oxalate Salt in Male Sprague Dawley (SD) Rats Species: SD rats Gender: Male Dose: IV (5 mg/kg), Single dose • PO (10 mg/kg), single dose Formulation: • IV—DMSO: PEG400:Water (10:30:60 v/v) • PO— 0.5% methylcellulose and 0.1% Tween 80 in water Sampling Time Points: • IV: 5 min, 15 min, 30 min, 1 h, 2, 4, 8 and 24 h post dose • PO: 10 min, 15 min, 30 min, 1 h, 2, 4, 8 and 24 h post dose. PK analysis: Phoenix software (Pharsight product). Noncompartmental Analysis (NCA) was used to estimate the PK parameters

[4] = Microsomal stability, PHLM; type: in vitro ADME; conditions: pooled human liver microsomes
Protocol: (§1) All in vitro experiments like protein binding, microsomal stability, cell cytotoxicity were performed as per study protocols of respective experiments.

[5] = Microsomal stability, RLM; type: in vitro ADME; conditions: rat liver microsomes
Protocol: as §1

[6] = tested on: Human Plasma; experiment: Plasma protein binding, human; type: in vitro ADME; conditions: for % Bound, Human Plasma: 10 μM (n = 4)
Protocol: as §1

[7] = tested on: Caco-2
[8] = Solid state stability of physical forms at 40° C./75% RH by pXRD; type: physicochemical; conditions: 40° C./75% RH open, 7 days
Protocol: Physical forms crystallized from various methods of crystallization were exposed to 40° C./75% RH for 7 days in open condition to understand the physical stability of the new physical forms in the presence of heat and humidity and also to know if there is any form conversion in the stable forms of Esylate and oxalate salts of FT-1518.

[9] = Plasma protein binding, mouse; type: in vitro ADME; conditions: mouse, plasma, 10 μM (n = 4); read-out: % Bound, Mouse plasma (converted)
Protocol: as §1

[10] = Plasma protein binding, human; type: in vitro ADME; conditions: human, plasma, 10 μM (n = 4); read-out: % Bound, Human Plasma (converted)
Protocol: as §1

[11] = Hepatic clearance, mouse; type: in vitro ADME
[12] = Hepatic clearance, human; type: in vitro ADME
[13] = Hepatic clearance, rat; type: in vitro ADME
[14] = Hepatic clearance, dog; type: in vitro ADME; conditions: dogs
[15] = Caco-2 permeability; conditions: human, Caco-2
[16] = tested on: Caco-2; experiment: Caco-2 permeability
[17] = tested on: prostate cancer (PC-3); experiment: In vitro assay, PC-3; type: cell-based; conditions: prostate cancer (PC-3) line
Protocol: as §1

[18] = IV dose (5 mg/kg), single dose, male SD rats
[19] = PO dose (10 mg/kg), single dose, male SD rats, 10 mg/kg
[20] = sample from cooling crystallization in ethanol
[21] = sample from slurry transformation in ethyl acetate
[22] = sample from solvent evaporation in acetonitrile
[23] = sample from solvent evaporation in ethanol

SMILES | % purity [2] [%] | XRD [2] | Bioavailability (% F) ([3]; male SD rats) [%] | Cmax [3, 19] [ng/mL] | Invitro T1/2, PHLM ([4]; 3 μM (n = 3)) [min] | stability in PHLM [4] | Invitro T1/2, RLM ([5]; 3 μM (n = 3)) [min] | stability in RLM [5] | plasma protein binding, human plasma [6] | % Bound, Human Plasma [6] [%] | pH of 2% w/v aqueous dispersion/solution [2] | state of 2% w/v aqueous dispersion/solution [2] | solid state stability (pXRD form) [8, 20] | solid state stability (pXRD form) [8, 21] | solid state stability (pXRD form) [8, 22] | solid state stability (pXRD form) [8, 23] | hepatic clearance in terms of liver blood flow [11] | hepatic clearance in terms of liver blood flow [12] | hepatic clearance in terms of liver blood flow [13] | hepatic clearance in terms of liver blood flow [14] | other results
CCC(CC)n1cnc2c(-c3cnc(N)cn3)nc(N3CC4CCC(C3)O4)nc21 [FT-1518 base] | 97.82 | Same as initial form | 44 | 1592 | >60 | ✓ FT1518, FT 1518-Esylate and FT1518-Oxalate was highly stable in PHLM and RLM | >60 | ✓ FT1518, FT 1518-Esylate and FT1518-Oxalate was highly stable in PHLM and RLM | ✓ FT1518, FT1518-Esylate and FT1518-Oxalate showed moderate plasma protein binding in both mouse and human plasma | 97.32 |  |  |  |  |  |  |  |  |  |  | Solubility ([1]; 0.04N phthalic acid): <1 mg/mL; Solubility ([1]; 0.1N H2SO4): >100 mg/mL; Solubility ([1]; 0.1N adipic acid): <1 mg/mL; clearance as % of SD rat liver blood flow ([3]; IV 5 mg/kg, SD rats): ~42%; AUC0-∞ [3, 18]: 3905 ± 1334 ng·h/mL; Cl [3, 18]: 1.4 ± 0.6 L/h/kg; Tmax ([3]; PO dose (10 mg/kg), single dose, male SD rats): 30 min; AUC (AU C0^.oo) [3, 19]: 3422 ± 684 ng·h/mL; Apparent permeability (Papp) A to B [7]: 215.71 ± 17.67 nm/s; Apparent permeability (Papp) B to A [7]: 309.40 ± 4.28 nm/s; permeability in Caco-2 assay [7]: ✓ FT1518 base, FT1518-Esylate and FT1518-Oxalate showed high permeability in Caco-2 assay. Efflux ratio of <2 indicates compounds that the compounds may not be substrates of P-gp or BCRP efflux transporters
CCC(CC)n1cnc2c(-c3cnc(N)cn3)nc(N3CC4CCC(C3)O4)nc21 [FT-1518-Esylate] | 98.07 | Same as initial form | > 100 |  |  | ✓ FT1518, FT 1518-Esylate and FT1518-Oxalate was highly stable in PHLM and RLM |  | ✓ FT1518, FT 1518-Esylate and FT1518-Oxalate was highly stable in PHLM and RLM | ✓ FT1518, FT1518-Esylate and FT1518-Oxalate showed moderate plasma protein binding in both mouse and human plasma |  | 2.1 | soluble | remained the same | 40 °C slurry converted | Same as initial salt | formed Same as initial salt | high | moderate | low | low | solid state stability (pXRD form) ([8]; sample from slurry transformation in THF: toluene (1:1)): Same as initial salt; solid state stability (pXRD form) ([8]; sample from slurry transformation in THF): Same as initial salt; solid state stability (pXRD form) ([8]; sample from slurry transformation in toluene): Same as initial salt; solid state stability (pXRD form) ([8]; sample from solvent evaporation in THF:water (9:1)): Same as initial salt; solid state stability (pXRD form) ([8]; sample from solvent evaporation in methanol): Same as initial salt; AUC ([3]; male, Sprague Dawley, rat, plasma, po, 10 mg/kg, PO dose (10 mg/kg), single dose, male SD rats, read-out: AUC (AU C0^.oo)): 9680 ng·h/mL; Cmax ([3]; male, Sprague Dawley, rat, plasma, po, 10 mg/kg, PO dose (10 mg/kg), single dose, male SD rats, read-out: Cmax): 1770 ng/mL; half-life at 3 μM ([4]; 3 μM (n = 3), read-out: Invitro T1/2, PHLM): > 60 min; half-life at 3 μM ([5]; 3 μM (n = 3), read-out: Invitro T1/2, RLM): > 60 min; fraction unbound at 10 μM [9]: 0.0854; fraction unbound at 10 μM [10]: 0.0298; efflux ratio at 10 μM [15]: 1.8; Papp A→B at 10 μM ([15]; Caco-2, Apparent permeability (Papp) A to B, 10 μM (n = 3)): 21.6 ± 0.887 ×10⁻⁶ cm/s; Papp B→A at 10 μM ([15]; Caco-2, Apparent permeability (Papp) B to A, 10 μM (n = 3)): 38.3 ± 0.426 ×10⁻⁶ cm/s; permeability in Caco-2 assay [16]: ✓ FT1518 base, FT1518-Esylate and FT1518-Oxalate showed high permeability in Caco-2 assay. Efflux ratio of <2 indicates compounds that the compounds may not be substrates of P-gp or BCRP efflux transporters
CCC(CC)n1cnc2c(-c3cnc(N)cn3)nc(N3CC4CCC(C3)O4)nc21 [FT-1518-Oxalate] | 97.04 | Same as initial form | 68 | 1980 | >60 | ✓ FT1518, FT 1518-Esylate and FT1518-Oxalate was highly stable in PHLM and RLM | >60 | ✓ FT1518, FT 1518-Esylate and FT1518-Oxalate was highly stable in PHLM and RLM | ✓ FT1518, FT1518-Esylate and FT1518-Oxalate showed moderate plasma protein binding in both mouse and human plasma | 95.54 | 2.6 | dispersion | Same as initial salt | Same as initial | Same as initial salt | Partial conversion of new | moderate | moderate | moderate | low | solid state stability (pXRD form) ([8]; sample from cooling crystallization in tetrahydrofuran): Same as initial salt; solid state stability (pXRD form) ([8]; sample from slurry transformation in ethyl acetate: water (9:1)): remained same; solid state stability (pXRD form) ([8]; sample from slurry transformation in hexane): Same as initial; solid state stability (pXRD form) ([8]; sample from solvent evaporation in acetone): Same as initial salt form; solid state stability (pXRD form) ([8]; sample from solvent evaporation in tetrahydrofuran): Major conversion of new; IC50 [17]: 183 µM; permeability in Caco-2 assay [16]: ✓ FT1518 base, FT1518-Esylate and FT1518-Oxalate showed high permeability in Caco-2 assay. Efflux ratio of <2 indicates compounds that the compounds may not be substrates of P-gp or BCRP efflux transporters; Apparent permeability (Papp) A to B ([16]; 10 μM (n = 3), Caco-2): 232.07 ± 18.01 nm/s; Apparent permeability (Papp) B to A ([16]; 10 μM (n = 3), Caco-2): 292.03 ± 14.82 nm/s

Reference: patent US11820782B2, “Salt forms of amino pyrazine purine based selective kinase inhibitor” (FTG BIO LLC, priority 2018, dated 2023)
